From ChEMBL document CHEMBL5046289, “Targeting the S2 Subsite Enables the Structure-Based Discovery of Novel Highly Selective Factor XIa Inhibitors” (J Med Chem, 2022)

Key:
Coagulation factor XI [1] = target: T1, Coagulation factor XI (Homo sapiens, UniProt P03951); experiment: Inhibition of coagulation factor XIa (unknown origin) assessed as chromogenic substrate hydrolysis using CS-21(66) as substrate incubated for 1 hr by spectrophotometer based microplate reader method
Coagulation factor XI [2] = target: T1, Coagulation factor XI; conditions: dose 50.0 nM, time 1.0 hrs
Plasma kallikrein = Plasma kallikrein (Homo sapiens, UniProt P03952); experiment: Inhibition of plasma kallikrein (unknown origin) assessed as chromogenic substrate hydrolysis using CS-31(02) as substrate incubated for 1 hr by spectrophotometer based microplate reader method
Chain of Plasma kallikrein (P03952 20-390 limits assumed): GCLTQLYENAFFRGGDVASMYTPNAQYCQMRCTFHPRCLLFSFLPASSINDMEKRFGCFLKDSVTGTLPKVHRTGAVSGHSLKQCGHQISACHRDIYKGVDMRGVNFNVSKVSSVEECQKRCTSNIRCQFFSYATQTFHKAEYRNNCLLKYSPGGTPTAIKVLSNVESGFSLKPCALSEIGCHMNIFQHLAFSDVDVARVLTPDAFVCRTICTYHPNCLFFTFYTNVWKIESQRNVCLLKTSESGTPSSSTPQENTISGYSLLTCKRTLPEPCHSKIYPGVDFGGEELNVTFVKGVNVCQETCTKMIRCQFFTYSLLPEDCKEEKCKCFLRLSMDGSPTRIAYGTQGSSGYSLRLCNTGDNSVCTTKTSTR
Chain of Plasma kallikrein (P03952 391-638 limits assumed): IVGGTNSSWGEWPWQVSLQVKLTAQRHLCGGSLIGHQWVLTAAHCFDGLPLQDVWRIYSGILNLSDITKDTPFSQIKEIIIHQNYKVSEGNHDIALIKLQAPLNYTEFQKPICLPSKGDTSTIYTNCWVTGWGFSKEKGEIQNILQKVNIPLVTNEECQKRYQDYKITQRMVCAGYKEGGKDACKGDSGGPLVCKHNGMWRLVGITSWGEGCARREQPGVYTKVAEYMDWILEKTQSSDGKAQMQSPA

Homo sapiens = species: Homo sapiens; experiment: Selectivity index, ratio of IC50 for plasma kallikrein (unknown origin) to IC50 for coagulation factor XIa (unknown origin)
[3] = Toxicity in C57BL/6J mouse assessed as bleeding risk at 20 mg/kg, iv measured after 15 mins by tail transection assay; type: organism-based; conditions: in vivo, 0.25 h
[4] = Toxicity in C57BL/6J mouse assessed as bleeding risk at 35 mg/kg, iv measured after 15 mins by tail transection assay; type: organism-based; conditions: in vivo, 0.25 h
[5] = Toxicity in C57BL/6J mouse assessed as bleeding risk at 60 to 100 mg/kg, iv measured after 15 mins by tail transection assay; type: organism-based; conditions: in vivo, 0.25 h, dose 60-100 mg/kg

T1 sequence (P03951 19-387 limits assumed): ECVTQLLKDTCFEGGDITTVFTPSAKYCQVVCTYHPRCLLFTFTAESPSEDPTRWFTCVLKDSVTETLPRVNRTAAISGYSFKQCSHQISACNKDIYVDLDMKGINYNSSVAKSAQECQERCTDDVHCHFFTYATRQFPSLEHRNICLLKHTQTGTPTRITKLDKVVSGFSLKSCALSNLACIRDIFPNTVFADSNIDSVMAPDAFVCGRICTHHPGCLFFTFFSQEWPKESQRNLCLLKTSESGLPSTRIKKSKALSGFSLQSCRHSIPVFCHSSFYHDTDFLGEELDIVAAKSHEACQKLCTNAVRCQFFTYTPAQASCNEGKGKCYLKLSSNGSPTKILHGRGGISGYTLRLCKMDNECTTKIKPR
T1 sequence (P03951 388-625 limits assumed): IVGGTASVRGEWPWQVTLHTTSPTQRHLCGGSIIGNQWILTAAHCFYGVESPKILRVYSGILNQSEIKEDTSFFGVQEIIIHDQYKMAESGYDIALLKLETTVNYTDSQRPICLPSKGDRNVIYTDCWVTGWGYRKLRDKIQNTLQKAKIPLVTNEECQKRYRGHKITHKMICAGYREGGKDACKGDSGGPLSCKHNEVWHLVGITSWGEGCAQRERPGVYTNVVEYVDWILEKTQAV

| SMILES | IC50 (Coagulation factor XI [1]) [nM] | inhibition (Coagulation factor XI [2]) [%] | IC50 (Plasma kallikrein) [nM] | further results |
| --- | --- | --- | --- | --- |
| CC(C)N1CCN(C(=O)CC[C@H](NC(=O)/C=C/c2cc(Cl)ccc2-n2cnnn2)C(=O)Nc2ccc(C(=O)O)cc2)CC1 | 73.5 | 20.9 | – | – |
| O=C(/C=C/c1cc(Cl)ccc1-n1cnnn1)N[C@@H](CCC(=O)N1CCCCC1)C(=O)Nc1ccc(C(=O)O)cc1 | – | 16.1 | – | – |
| O=C(/C=C/c1cc(Cl)ccc1-n1cnnn1)N[C@@H](CC(=O)N1CCC(O)CC1)C(=O)Nc1ccc(C(=O)O)cc1 | – | 12.3 | – | – |
| O=C(/C=C/c1cc(Cl)ccc1-n1cnnn1)N[C@@H](CC(=O)N1CCN(CCO)CC1)C(=O)Nc1ccc(C(=O)O)cc1 | 11.5 | 60.2 | 3400 | Ratio IC50 (Homo sapiens): 295 |
| O=C(/C=C/c1cc(Cl)ccc1-n1cnnn1)N[C@@H](CCC(=O)N1CCN(CC2CC2)CC1)C(=O)Nc1ccc(C(=O)O)cc1 | – | 41.7 | 3100 | Ratio IC50 (Homo sapiens): 42 |
| CCCCN1CCN(C(=O)CC[C@H](NC(=O)/C=C/c2cc(Cl)ccc2-n2cnnn2)C(=O)Nc2ccc(C(=O)O)cc2)CC1 | – | 39.3 | 2700 | Ratio IC50 (Homo sapiens): 30 |
| CC(C)N1CCN(C(=O)C[C@H](NC(=O)/C=C/c2cc(Cl)ccc2-n2cnnn2)C(=O)Nc2ccc(C(=O)O)cc2)CC1 | 31.2 | 44 | 490 | Ratio IC50 (Homo sapiens): 16 |
| CC(=O)N1CCN(C(=O)C[C@H](NC(=O)/C=C/c2cc(Cl)ccc2-n2cnnn2)C(=O)Nc2ccc(C(=O)O)cc2)CC1 | 76.5 | 23.2 | 17300 | Ratio IC50 (Homo sapiens): 226 |
| O=C(/C=C/c1cc(Cl)ccc1-n1cnnn1)N[C@@H](CCC(=O)N1CCC(O)CC1)C(=O)Nc1ccc(C(=O)O)cc1 | – | 20.9 | – | – |
| O=C(/C=C/c1cc(Cl)ccc1-n1cnnn1)N[C@@H](CC(=O)N1CCCN(CC2CC2)CC1)C(=O)Nc1ccc(C(=O)O)cc1 | 67.1 | 34.7 | 1400 | Ratio IC50 (Homo sapiens): 21 |
| O=C(/C=C/c1cc(Cl)ccc1-n1cnnn1)N[C@@H](CC(=O)N1CCN(CC2CC2)CC1)C(=O)Nc1ccc(C(=O)O)cc1 | 7.8 | 65.7 | 600 | Ratio IC50 (Homo sapiens): 77 |
| O=C(/C=C/c1cc(Cl)ccc1-n1cnnn1)N[C@@H](Cc1ccccc1)C(=O)Nc1ccc(C(=O)O)cc1 | – | – | – | Activity [3]: Non-Toxic; Activity [4]: Non-Toxic; Activity [5]: Toxic |
| CCN1CCN(C(=O)CC[C@H](NC(=O)/C=C/c2cc(Cl)ccc2-n2cnnn2)C(=O)Nc2ccc(C(=O)O)cc2)CC1 | 89.4 | 17.2 | – | – |
| CN1CCCN(C(=O)CC[C@H](NC(=O)/C=C/c2cc(Cl)ccc2-n2cnnn2)C(=O)Nc2ccc(C(=O)O)cc2)CC1 | – | 30.1 | – | – |
| O=C(/C=C/c1cc(Cl)ccc1-n1cnnn1)N[C@@H](CCC(=O)N1CCSCC1)C(=O)Nc1ccc(C(=O)O)cc1 | 132 | 21.9 | 6700 | Ratio IC50 (Homo sapiens): 50 |
| CN(C)C1CCN(C(=O)CC[C@H](NC(=O)/C=C/c2cc(Cl)ccc2-n2cnnn2)C(=O)Nc2ccc(C(=O)O)cc2)CC1 | – | 7.5 | – | – |
| O=C(/C=C/c1cc(Cl)ccc1-n1cnnn1)N[C@@H](CC(=O)N1CCCCC1)C(=O)Nc1ccc(C(=O)O)cc1 | – | 15.9 | – | – |
| CCCCN1CCN(C(=O)C[C@H](NC(=O)/C=C/c2cc(Cl)ccc2-n2cnnn2)C(=O)Nc2ccc(C(=O)O)cc2)CC1 | 7.7 | 51.5 | 510 | – |
| O=C(/C=C/c1cc(Cl)ccc1-n1cnnn1)N[C@@H](CCC(=O)N1CCS(=O)(=O)CC1)C(=O)Nc1ccc(C(=O)O)cc1 | – | 2.6 | – | – |

Continued, in another order:

| IC50 (Coagulation factor XI [1]) [nM] | inhibition (Coagulation factor XI [2]) [%] | IC50 (Plasma kallikrein) [nM] | SMILES | further results |
| --- | --- | --- | --- | --- |
| 26.5 | 43.5 | 1200 | Cc1ccc(CN2CCN(C(=O)C[C@H](NC(=O)/C=C/c3cc(Cl)ccc3-n3cnnn3)C(=O)Nc3ccc(C(=O)O)cc3)CC2)cc1 | Ratio IC50 (Homo sapiens): 45 |
| – | 8.9 | – | COc1ccc(CN(CC(=O)Nc2ccc(C(=O)O)cc2)C(=O)/C=C/c2cc(Cl)ccc2-n2cnnn2)cc1 | – |
| – | 15.3 | – | O=C(CN(Cc1ccccc1)C(=O)/C=C/c1cc(Cl)ccc1-n1cnnn1)Nc1ccc(C(=O)O)cc1 | – |
| – | < 5 | – | Cc1ccc(CN(CC(=O)Nc2ccc(C(=O)O)cc2)C(=O)/C=C/c2cc(Cl)ccc2-n2cnnn2)cc1 | – |
| – | 7.9 | – | O=C(CN(Cc1ccccc1)C(=O)/C=C/c1cccc(Cl)c1)Nc1ccc(C(=O)O)cc1 | – |
| – | 7.2 | – | O=C(CN(Cc1ccc(F)cc1)C(=O)/C=C/c1cc(Cl)ccc1-n1cnnn1)Nc1ccc(C(=O)O)cc1 | – |
| – | < 5 | – | COc1ccc(CN(CC(=O)Nc2ccc(C(=O)O)cc2)C(=O)/C=C/c2cccc(Cl)c2)cc1 | – |
| – | 3.6 | – | CCc1ccc(CN(CC(=O)Nc2ccc(C(=O)O)cc2)C(=O)/C=C/c2cc(Cl)ccc2-n2cnnn2)cc1 | – |
| 737 | 20.5 | – | CN1CCN(C(=O)CC[C@H](NC(=O)/C=C/c2cc(Cl)ccc2-n2cnnn2)C(=O)Nc2ccc(C(=O)O)cc2)CC1 | – |
| – | 3.6 | – | CC1CCN(C(=O)C[C@H](NC(=O)/C=C/c2cc(Cl)ccc2-n2cnnn2)C(=O)Nc2ccc(C(=O)O)cc2)CC1 | – |
| – | 17.2 | – | CN1CCN(C(=O)C[C@H](NC(=O)/C=C/c2cc(Cl)ccc2-n2cnnn2)C(=O)Nc2ccc(C(=O)O)cc2)CC1 | – |
| – | 6.6 | – | O=C(O)CC[C@H](NC(=O)/C=C/c1cc(Cl)ccc1-n1cnnn1)C(=O)Nc1ccc(C(=O)O)cc1 | – |
| – | < 5 | – | O=C(/C=C/c1cc(Cl)ccc1-n1cnnn1)NCC(=O)Nc1ccc(C(=O)O)cc1 | – |
| 25.5 | 45.5 | 2700 | CCN1CCN(C(=O)C[C@H](NC(=O)/C=C/c2cc(Cl)ccc2-n2cnnn2)C(=O)Nc2ccc(C(=O)O)cc2)CC1 | Ratio IC50 (Homo sapiens): 106 |
| – | 3.1 | – | CC1CCN(C(=O)CC[C@H](NC(=O)/C=C/c2cc(Cl)ccc2-n2cnnn2)C(=O)Nc2ccc(C(=O)O)cc2)CC1 | – |
| – | 19.4 | – | Cc1ccc(CN2CCN(C(=O)CC[C@H](NC(=O)/C=C/c3cc(Cl)ccc3-n3cnnn3)C(=O)Nc3ccc(C(=O)O)cc3)CC2)cc1 | – |
| 30.2 | 53.3 | 1060 | O=C(/C=C/c1cc(Cl)ccc1-n1cnnn1)N[C@@H](CC(=O)N1CCN(Cc2ccccc2)CC1)C(=O)Nc1ccc(C(=O)O)cc1 | Ratio IC50 (Homo sapiens): 35 |
| – | 2.1 | – | O=C(O)C[C@H](NC(=O)/C=C/c1cc(Cl)ccc1-n1cnnn1)C(=O)Nc1ccc(C(=O)O)cc1 | – |
| – | 3.8 | – | O=C(/C=C/c1cc(Cl)ccc1-n1cnnn1)N[C@@H](CCC(=O)N1CCN(Cc2cccc(Cl)c2)CC1)C(=O)Nc1ccc(C(=O)O)cc1 | – |
